Measured values from publication PMC10191325 (PLOS Neglected Tropical Diseases, 2023).

Columns and labels:
[1] = target: T1, WbDHFR (dihydrofolate reductase) (Wuchereria bancrofti, UniProt J9F199); assay: X-ray crystal structure ([…] Å) and tryptophan fluorescence equilibrium titration; assay type: binding; design: gene WUBG_00817; open reading frame with engineered N-terminal His6-tag
[2] = target: T1, WbDHFR (dihydrofolate reductase); assay: biochemical; design: gene WUBG_00817

SMILES: Nc1nc2ncc(CNc3ccc(C(=O)N[C@@H](CCC(=O)O)C(=O)O)cc3)nc2c(=O)[nH]1 [folate]
- Kd [1]: 23 ± 4 nM

SMILES: NC(=O)C1=CN([C@@H]2O[C@H](COP(=O)(O)OP(=O)(O)OC[C@H]3O[C@@H](n4cnc5c(N)ncnc54)[C@H](OP(=O)(O)O)[C@@H]3O)[C@@H](O)[C@H]2O)C=CC1 [NADPH]
- Kd [1]: 90 ± 29 nM

SMILES: COc1cc(NCc2ccc3nc(N)nc(N)c3c2C)cc(OC)c1OC [TMX, trimetrexate]
- IC50 [2]: 490 ± 160 nM
